Laboratory results as given in patent publication US9969724B2, “Factor IXa inhibitors” (Merck Sharp & Dohme Corp., priority 2014, dated 2018).

Molecular target: human factor IXa (Homo sapiens (Human), UniProt P00740)
Assay: Determination of Inhibitory Activity Against Factor IXa
Format: biochemical
Conditions: Factor IXa enzyme assay human; read-out: FIXa IC50
Method: Inhibitory activity against factor IXa was tested using the substrate SPECTROFLUOR FIXa (american diagnostica inc.; 500 West Avenue, Stamford, Conn. 06902 USA; Pr. No. 299F) and human factor IXa (american diagnostica inc.; Pr. No. 449b). Test substances were dissolved in buffer A (50 mM α,α,α-tris(hydroxymethyl) methylamine (Tris), 100 mM NaCl, 5 mM CaCl2, 15% (v/v) ethylene glycol, pH 8.0) were mixed with factor IXa (0.1 μg/ml final concentration). The enzyme reaction was started by addition of SPECTROFLUOR FIXa (100 μM final concentration). After incubation for 60 minutes at room temperature, the reaction was stopped by the addition of 20% (v/v) acetic acid solution, and then the fluorescence value was measured (Excitation Wavelength: 355 nm, Emission Wavelength; 460 nm) in a microtiter plate reader (ARVO 1420 Multilabel Counter; PerkinElmer).
The IC50 was calculated from a dilution series of the test substance with the aid of the software, Symyx Assay Explorer (Symyx Technologies, Inc.).

Sequence of human factor IXa (P00740 227-461): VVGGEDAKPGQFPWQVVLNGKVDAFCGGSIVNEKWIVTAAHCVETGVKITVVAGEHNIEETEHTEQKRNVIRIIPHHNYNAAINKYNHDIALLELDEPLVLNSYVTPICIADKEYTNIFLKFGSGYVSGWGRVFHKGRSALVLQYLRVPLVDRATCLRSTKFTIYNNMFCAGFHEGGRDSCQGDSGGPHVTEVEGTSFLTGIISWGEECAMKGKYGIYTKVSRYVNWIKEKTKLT
Sequence of human factor IXa (P00740 47-191 partner): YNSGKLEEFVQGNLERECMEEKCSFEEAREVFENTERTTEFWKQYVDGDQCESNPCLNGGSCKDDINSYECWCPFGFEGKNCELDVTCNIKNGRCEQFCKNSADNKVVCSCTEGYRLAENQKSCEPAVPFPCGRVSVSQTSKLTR

Row | IC50 [nM] | Structure (SMILES)
1 | ≤ 100 | Nc1noc2c(N3CC[C@@H](NC(=O)c4ccc(-n5cnnc5)cc4Cl)C3)cc(Cl)cc12 [Example 10, (R)—N-(1-(3-Amino-5-chlorobenzo[d]isoxazol-7-yl)pyrrolidin-3-yl)-2-chloro-4-(4H-1,2,4-triazol-4-yl)benzamide]
2 | ≤ 100 | Cc1cc(N2CCC(NC(=O)c3c(Cl)cc(-n4cnc(C)n4)cc3Cl)C2)c2onc(N)c2c1 (centres unmarked) [Example 6, N-(1-(3-Amino-5-methylbenzo[d]isoxazol-7-yl)pyrrolidin-3-yl)-2,6-dichloro-4-(3-methyl-1H-1,2,4-triazol-1-yl)benzamide]
3 | ≤ 100 | Nc1noc2c(N3CC[C@@H](NC(=O)c4ccc(-c5cncc(CCO)c5)cc4Cl)C3)ncc(Cl)c12 [Example 31, (R)—N-(1-(3-Amino-4-chloroisoxazolo[5,4-c]pyridin-7-yl)pyrrolidin-3-yl)-2-chloro-4-(5-(2-hydroxyethyl)pyridin-3-yl)benzamide]
4 | ≤ 100 | Nc1noc2c(N3CC[C@@H](NC(=O)c4ccc(-n5cnn(CCO)c5=O)cc4Cl)C3)ncc(Cl)c12 [Example 47, (R)—N-(1-(3-Amino-4-chloroisoxazolo[5,4-c]pyridin-7-yl)pyrrolidin-3-yl)-2-chloro-4-(1-(2-hydroxyethyl)-5-oxo-1,5-dihydro-4H-1,2,4-triazol-4-yl)benzamide]
5 | ≤ 100 | Nc1noc2c(N3CC[C@@H](NC(=O)c4ccc(-n5cnc6ncccc65)cc4Cl)C3)ncc(Cl)c12 [Example 32, (R)—N-(1-(3-Amino-4-chloroisoxazolo[5,4-c]pyridin-7-yl)pyrrolidin-3-yl)-2-chloro-4-(1H-imidazo[4,5-b]pyridin-1-yl)benzamide]
6 | ≤ 100 | Nc1noc2c(N3CC[C@@H](NC(=O)c4ccc(-c5ccc6nncn6c5)cc4Cl)C3)ncc(Cl)c12 [Example 38, (R)-4-([1,2,4]Triazolo[4,3-a]pyridin-6-yl)-N-(1-(3-amino-4-chloroisoxazolo[5,4-c]pyridin-7-yl)pyrrolidin-3-yl)-2-chlorobenzamide]
7 | ≤ 100 | Nc1noc2c(N3CC[C@@H](NC(=O)c4ccc(-n5cnc(C6CC6)n5)cc4Cl)C3)cc(Cl)cc12 [Example 17, (R)—N-(1-(3-Amino-5-chlorobenzo[d]isoxazol-7-yl)pyrrolidin-3-yl)-2-chloro-4-(3-cyclopropyl-1H-1,2,4-triazol-1-yl)benzamide]
8 | ≤ 100 | Nc1noc2c(N3CC[C@@H](NC(=O)c4ccc(-n5cnc6ccccc65)cc4Cl)C3)ncc(Cl)c12 [Example 29, (R)—N-(1-(3-Amino-4-chloroisoxazolo[5,4-c]pyridin-7-yl)pyrrolidin-3-yl)-4-(1H-benzo[d]imidazol-1-yl)-2-chlorobenzamide]
9 | 100 to 1000 | Nc1nsc2c(N3CCC(NC(=O)c4c(Cl)cc(-n5cnnc5)cc4Cl)C3)cccc12 (centres unmarked) [Example 4, N-(1-(3-Aminobenzo[d]isothiazol-7-yl)pyrrolidin-3-yl)-2,6-dichloro-4-(4H-1,2,4-triazol-4-yl)benzamide]
10 | ≤ 100 | Nc1noc2c(N3CC[C@@H](NC(=O)c4ccc(-n5cnnc5C(F)F)cc4Cl)C3)ncc(Cl)c12 [Example 28, (R)—N-(1-(3-Amino-4-chloroisoxazolo[5,4-c]pyridin-7-yl)pyrrolidin-3-yl)-2-chloro-4-(3-(difluoromethyl)-4H-1,2,4-triazol-4-yl)benzamide]
11 | 100 to 1000 | Nc1noc2c(N3CC[C@@H](NC(=O)c4ccc(-n5cnnc5)cc4Cl)C3)ccc(F)c12 [Example 13, (R)—N-(1-(3-Amino-4-fluorobenzo[d]isoxazol-7-yl)pyrrolidin-3-yl)-2-chloro-4-(4H-1,2,4-triazol-4-yl)benzamide]
12 | ≤ 100 | Nc1noc2c(N3CC[C@@H](NC(=O)c4ccc(-n5cnn(CC(F)(F)F)c5=O)cc4Cl)C3)ncc(Cl)c12 [Example 50, (R)—N-(1-(3-Amino-4-chloroisoxazolo[5,4-c]pyridin-7-yl)pyrrolidin-3-yl)-2-chloro-4-(5-oxo-1-(2,2,2-trifluoroethyl)-1,5-dihydro-4H-1,2,4-triazol-4-yl)benzamide]
13 | ≤ 100 | N#Cc1ncc(-c2ccc(C(=O)N[C@@H]3CCN(c4ncc(Cl)c5c(N)noc45)C3)c(Cl)c2)cn1 [Example 22, (R)—N-(1-(3-Amino-4-chloroisoxazolo[5,4-c]pyridin-7-yl)pyrrolidin-3-yl)-2-chloro-4-(2-cyanopyrimidin-5-yl)benzamide]
14 | ≤ 100 | Cn1cc(-c2ccc(C(=O)N[C@@H]3CCN(c4ncc(Cl)c5c(N)noc45)C3)c(Cl)c2)cnc1=O [Example 44, (R)—N-(1-(3-Amino-4-chloroisoxazolo[5,4-c]pyridin-7-yl)pyrrolidin-3-yl)-2-chloro-4-(1-methyl-2-oxo-1,2-dihydropyrimidin-5-yl)benzamide]
15 | ≤ 100 | Nc1noc2c(N3CC[C@@H](NC(=O)c4ccc(-c5cncnc5)cc4Cl)C3)ncc(Cl)c12 [Example 20, (R)—N-(1-(3-Amino-4-chloroisoxazolo[5,4-c]pyridin-7-yl)pyrrolidin-3-yl)-2-chloro-4-(pyrimidin-5-yl)benzamide]
16 | 100 to 1000 | Cc1cc(-n2cncn2)ccc1C(=O)N[C@@H]1CCN(c2ccc(Cl)c3c(N)noc23)C1 [Example 19, (R)—N-(1-(3-Amino-4-chlorobenzo[d]isoxazol-7-yl)pyrrolidin-3-yl)-2-methyl-4-(1H-1,2,4-triazol-1-yl)benzamide]
17 | ≤ 100 | Nc1noc2c(N3CC[C@@H](NC(=O)c4ccc(-n5cnc(CCO)n5)cc4Cl)C3)ccc(Cl)c12 [Example 23, (R)—N-(1-(3-Amino-4-chlorobenzo[d]isoxazol-7-yl)pyrrolidin-3-yl)-2-chloro-4-(3-(2-hydroxyethyl)-1H-1,2,4-triazol-1-yl)benzamide]
18 | ≤ 100 | Nc1noc2c(N3CC[C@@H](NC(=O)c4ccc(-n5cn[nH]c5=O)cc4Cl)C3)ncc(Cl)c12 [Example 46, (R)—N-(1-(3-Amino-4-chloroisoxazolo[5,4-c]pyridin-7-yl)pyrrolidin-3-yl)-2-chloro-4-(5-oxo-1,5-dihydro-4H-1,2,4-triazol-4-yl)benzamide]
19 | ≤ 100 | Cc1ncn(-c2ccc(C(=O)NC3(C)CCN(c4cc(Cl)cc5c(N)noc45)C3)c(Cl)c2)n1 (centres unmarked) [Example 15, N-(1-(3-Amino-5-chlorobenzo[d]isoxazol-7-yl)-3-methylpyrrolidin-3-yl)-2-chloro-4-(3-methyl-1H-1,2,4-triazol-1-yl)benzamide]
20 | ≤ 100 | Nc1noc2c(N3CC[C@@H](NC(=O)c4ccc(-n5cnc(CCO)c5)cc4Cl)C3)ncc(Cl)c12 [Example 27, (R)—N-(1-(3-Amino-4-chloroisoxazolo[5,4-c]pyridin-7-yl)pyrrolidin-3-yl)-2-chloro-4-(4-(2-hydroxyethyl)-1H-imidazol-1-yl)benzamide]
21 | 100 to 1000 | Cc1ncn(-c2cnc(C(=O)N[C@@H]3CCN(c4ncc(Cl)c5c(N)noc45)C3)c(Cl)c2)n1 [Example 52, (R)—N-(1-(3-Amino-4-chloroisoxazolo[5,4-c]pyridin-7-yl)pyrrolidin-3-yl)-3-chloro-5-(3-methyl-1H-1,2,4-triazol-1-yl)picolinamide]
22 | ≤ 100 | Cc1ncn(-c2ccc(C(=O)N[C@@H]3CCN(c4ncc(Cl)c5c(N)noc45)C3)c(Cl)c2)n1 [Example 11, (R)—N-(1-(3-Amino-4-chloroisoxazolo[5,4-c]pyridin-7-yl)pyrrolidin-3-yl)-2-chloro-4-(3-methyl-1H-1,2,4-triazol-1-yl)benzamide]
23 | 100 to 1000 | Cc1ncn(-c2ccc(C(=O)N[C@@H]3CCN(c4nc(C(F)F)cc5c(N)noc45)C3)c(Cl)c2)n1 [Example 39, (R)—N-(1-(3-Amino-5-(difluoromethyl)isoxazolo[5,4-c]pyridin-7-yl)pyrrolidin-3-yl)-2-chloro-4-(3-methyl-1H-1,2,4-triazol-1-yl)benzamide]
24 | ≤ 100 | Nc1noc2c(N3CC[C@@H](NC(=O)c4ccc(-n5cncn5)cc4Cl)C3)ncc(Cl)c12 [Example 24, (R)—N-(1-(3-Amino-4-chloroisoxazolo[5,4-c]pyridin-7-yl)pyrrolidin-3-yl)-2-chloro-4-(1H-1,2,4-triazol-1-yl)benzamide]
25 | ≤ 100 | Nc1noc2c(N3CC[C@@H](NC(=O)c4ccc(-n5cnc6cncnc65)cc4Cl)C3)ncc(Cl)c12 [Example 48, (R)—N-(1-(3-Amino-4-chloroisoxazolo[5,4-c]pyridin-7-yl)pyrrolidin-3-yl)-2-chloro-4-(9H-purin-9-yl)benzamide]
26 | ≤ 100 | Nc1noc2c(N3CC[C@@H](NC(=O)c4ccc(-n5cnnc5C(F)(F)F)cc4Cl)C3)ncc(Cl)c12 [Example 43, (R)—N-(1-(3-Amino-4-chloroisoxazolo[5,4-c]pyridin-7-yl)pyrrolidin-3-yl)-2-chloro-4-(3-(trifluoromethyl)-4H-1,2,4-triazol-4-yl)benzamide]
27 | ≤ 100 | Nc1noc2c(N3CC[C@@H](NC(=O)c4ccc(-n5cnnc5)cc4)C3)ncc(Cl)c12 [Example 36, (R)—N-(1-(3-Amino-4-chloroisoxazolo[5,4-c]pyridin-7-yl)pyrrolidin-3-yl)-4-(4H-1,2,4-triazol-4-yl)benzamide]
28 | ≤ 100 | Nc1noc2c(N3C[C@H](NC(=O)c4c(Cl)cc(-n5cnnc5)cc4Cl)[C@@H](O)C3)cccc12 (relative stereo) [Example 8, N-((3S*,4S*)-1-(3-Aminobenzo[d]isoxazol-7-yl)-4-hydroxypyrrolidin-3-yl)-2,6-dichloro-4-(4H-1,2,4-triazol-4-yl)benzamide]
29 | ≤ 100 | Nc1noc2c(N3CCC(NC(=O)c4ccc(-n5cnnc5)cc4Cl)C3)nccc12 (centres unmarked) [Example 5, N-(1-(3-Aminoisoxazolo[5,4-c]pyridin-7-yl)pyrrolidin-3-yl)-2-chloro-4-(4H-1,2,4-triazol-4-yl)benzamide]
